Experimental data: patent publication US20140088034A1, “NITRIC OXIDE/cGMP PATHWAY INHIBITION OF VLA-4 RELATED CELL ADHESION” (STC.UNM, priority 2011, published 2014)
Residues, ends and D or L forms follow the SMILES beside them.

Experiments:
VLA-4 [1] = experiment: Real-time flow cytometric binding of LDV-FITC probe (VLA-4 affinity change) on GPCR-transfected U937 cells; type: cell-based, human; settings: for reversibility of the decrease in LDV-FITC binding / effect on LDV-FITC binding, compound added after fMLFF activation: U937 non-desensitizing FPR mutant (ΔST), LDV-FITC 4 nM, fMLFF 100 nM; for effect on LDV-FITC binding, compound added after fMLFF activation: different concentrations; for effect on magnitude of LDV-FITC binding response, compound added prior to IL-8 activation: U937 CXCR2/IL-8RB; for effect on magnitude of LDV-FITC binding response, compound added prior to IL-8 activation / effect on magnitude of LDV-FITC binding response, compound added prior to SDF-1 activation: added at 0 time point, BAY 41-2272 100 μM; for effect on magnitude of LDV-FITC binding response, compound added prior to SDF-1 activation: U937 CXCR4
Experimental: Experiments were conducted as described under “Methods”, infra. A, LDV-FITC probe binding and dissociation on U937 cells stably transfected with the non-desensitizing mutant of FPR (ΔST) receptor plotted as mean channel fluorescence (MCF) versus time.
The experiment involved sequential addition of fluorescent LDV-FITC probe (4 nM, below saturation, added 2 min prior to addition of Gαi-coupled receptor ligand, fMLFF, 100 nM), and different concentrations of DEA-NONOate (nitric oxide donor) (arrows). Control cells were treated with vehicle. The MCF value corresponding to cell autofluorescence is indicated by the horizontal arrow. […] Curves are means of two independent determinations calculated on a point-by-point basis (n=2). B, LDV-FITC probe binding and dissociation on U937 cells stably transfected with wild type CXCR4 receptor plotted as mean channel fluorescence (MCF) versus time.
The experiment involved sequential addition of fluorescent LDV-FITC probe (4 nM), CXCL12/SDF-1 (12 nM), and DEA-NONOate (250 μM, nitric oxide donor) or vehicle (control) (arrows). Rapid and reversible binding of the probe reflects the VLA-4 affinity change. Curves are means of two independent determinations calculated on a point-by-point basis (n=2). SEM of mean, calculated on a point by point basis, indicated using error bars to show significance of the difference between treatment and control samples. C, LDV-FITC probe binding and dissociation on U937 cells stably transfected with wild type CXCR2/IL-8RB receptor plotted as mean channel fluorescence (MCF) versus time.
The experiment involved sequential addition of the fluorescent LDV-FITC probe (4 nM), CXCL8/IL-8 (20 nM), and DEA-NONOate (250 μM, nitric oxide donor) or vehicle (control) (arrows). This experiment is analogous to the one shown in panel B. One representative experiment of three experiments is shown. Curves are means of two independent determinations calculated on a point-by-point basis (n=2). D, LDV-FITC probe binding and dissociation on U937 cells stably transfected with wild type CXCR4 receptor plotted as mean channel fluorescence (MCF) versus time.
The experiment involved sequential addition of the DEA-NONOate (250 μM, nitric oxide donor) or vehicle (control) at the 0 time point, and the fluorescent LDV-FITC probe (4 nM), CXCL12/SDF-1 (12 nM) (arrows). Rapid and reversible binding of the probe reflects the VLA-4 affinity change. Excess unlabelled competitor LDV (1 μM) is added at the end of the experiment to determine the non-specific binding of the probe. Curves are means of two independent determinations calculated on a point-by-point basis (n=2). SEM, calculated on a point by point basis, is indicated using error bars to show the significance of the difference between treatment and control samples. E, LDV-FITC probe binding and dissociation on U937 cells stably transfected with wild type CXCR2/IL-8RB receptor plotted as mean channel fluorescence (MCF) versus time.
The experiment involved sequential addition of DEA-NONOate (250 μM, nitric oxide donor) or vehicle (control) at the 0 time point, and the fluorescent LDV-FITC probe (4 nM), CXCL8/IL-8 (20 nM) (arrows). Excess unlabelled competitor LDV (1 μM) added at the end of the experiment to determine the non-specific binding of the probe. This experiment is analogous to the one shown in panel D. One representative experiment of three experiments is shown. Curves are means of two independent determinations calculated on a point-by-point basis (n=2). […] Experiments shown in the different panels were performed using different instruments, and therefore MCF values are not identical. […]
LDV-FITC probe binding and dissociation on U937 cells stably transfected with the non-desensitizing mutant of FPR plotted as mean channel fluorescence (MCF) versus time. […]

[2] = tested on: VLA-4/VCAM-1 dependent cell adhesion; experiment: Real-time cell aggregation between U937 FPR (ΔST) and VCAM-1-transfected B78H1 cells; type: cell-based, human; settings: U937 FPR ΔST + B78H1/VCAM-1; fMLFF 100 nM; DEA-NONOate 250 μM; LDV block 2 μM 6 min after mixing
Experimental: Real-time aggregation experiments were conducted as described under “Methods”, infra. U937/AST FPR stably transfected cells, which constitutively express VLA-4, were labeled with red fluorescent dye, and B78H1/VCAM-1 transfectants were stained with green fluorescent dye. […] Next, cells were mixed and real-time cell aggregation (red and green double positive events) was followed. To determine the level of VLA-4 dependent cell aggregation, 6 min after cell mixing, excess unlabelled VLA-4 specific ligand was added (arrow, LDV block, 2 μM).
Prior to the experiment, individual cell populations were stained with either of two fluorescent dyes (red and green). Next, the cell populations were mixed, and the appearance of double positive events, representing cellular aggregates, was followed in real-time by flow cytometry (see FIG. 1, 2, 3 in [55] for method details).
The cell suspension adhesion assay has been described previously. Briefly, U937/AST FPR stably transfected cells were labeled with red fluorescent PKH26GL dye, and B78H1/VCAM-1 transfectants were stained with green fluorescent PKH67GL dye (Sigma-Aldrich). Labeled cells were washed, resuspended in HEPES buffer supplemented with 0.1% HSA and stored on ice until used in assays. Control U937 cells were preincubated with the 1 μM LDV-containing small molecule for blocking adhesion. Prior to data acquisition, cells were warmed to 37° C. for 10 min separately and then mixed. During data acquisition, the samples were stirred with a 5×2-mm magnetic stir bar (Bel-Art Products, Pequannock, N.J.) at 300 rpm and kept at 37° C. For stimulation, cells were treated with appropriate GPCR ligands at saturating concentration (10 times or higher than Kd). In several experiments cells were treated sequentially with two different compounds. […] The percentage of aggregates was calculated as follows: % U937 cells in aggregates=number of aggregates/(number of aggregates+number of U937 singlets))×100. […]

VLA-4 [3] = molecular target: VLA-4 (Homo sapiens, UniProt P05556+P13612); experiment: Kinetic dissociation rate (koff) analysis of LDV-FITC probe on U937 cells with non-desensitizing FPR mutant; type: cell-based; settings: U-937; U937 FPR ΔST; fMLFF 100 nM then BAY 41-2272 50 μM; LDV-FITC 25 nM, LDV block 2 μM; read-out: dissociation rate constant koff of LDV-FITC after fMLFF and BAY 41-2272
Sequence of VLA-4 (Homo sapiens, UniProt P05556+P13612) (P13612 34-1032): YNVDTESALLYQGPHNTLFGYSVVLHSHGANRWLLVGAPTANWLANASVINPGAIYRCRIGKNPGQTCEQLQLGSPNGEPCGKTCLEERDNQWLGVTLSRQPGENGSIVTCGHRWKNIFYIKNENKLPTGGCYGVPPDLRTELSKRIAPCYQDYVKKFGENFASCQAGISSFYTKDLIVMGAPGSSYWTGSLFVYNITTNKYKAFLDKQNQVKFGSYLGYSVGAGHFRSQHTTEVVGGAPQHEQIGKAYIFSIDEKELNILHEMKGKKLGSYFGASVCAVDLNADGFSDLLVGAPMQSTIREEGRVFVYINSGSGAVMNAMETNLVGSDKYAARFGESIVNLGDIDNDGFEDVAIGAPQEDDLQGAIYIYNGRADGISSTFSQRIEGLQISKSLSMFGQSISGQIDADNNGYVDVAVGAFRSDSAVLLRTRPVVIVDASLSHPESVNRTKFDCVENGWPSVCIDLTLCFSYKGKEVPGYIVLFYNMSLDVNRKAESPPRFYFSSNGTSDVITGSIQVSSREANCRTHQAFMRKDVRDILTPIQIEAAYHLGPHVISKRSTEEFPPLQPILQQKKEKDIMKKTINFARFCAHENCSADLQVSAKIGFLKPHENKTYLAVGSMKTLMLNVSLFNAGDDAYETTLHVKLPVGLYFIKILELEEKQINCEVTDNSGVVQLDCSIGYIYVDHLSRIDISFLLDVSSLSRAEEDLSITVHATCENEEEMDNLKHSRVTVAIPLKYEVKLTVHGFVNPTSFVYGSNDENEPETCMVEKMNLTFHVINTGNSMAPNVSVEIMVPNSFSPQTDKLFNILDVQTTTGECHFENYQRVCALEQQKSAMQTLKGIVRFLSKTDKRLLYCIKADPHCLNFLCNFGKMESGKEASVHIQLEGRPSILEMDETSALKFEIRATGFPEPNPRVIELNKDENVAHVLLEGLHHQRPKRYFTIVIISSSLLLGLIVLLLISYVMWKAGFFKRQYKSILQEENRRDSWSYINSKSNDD
Sequence of VLA-4 (Homo sapiens, UniProt P05556+P13612) (P05556 21-798): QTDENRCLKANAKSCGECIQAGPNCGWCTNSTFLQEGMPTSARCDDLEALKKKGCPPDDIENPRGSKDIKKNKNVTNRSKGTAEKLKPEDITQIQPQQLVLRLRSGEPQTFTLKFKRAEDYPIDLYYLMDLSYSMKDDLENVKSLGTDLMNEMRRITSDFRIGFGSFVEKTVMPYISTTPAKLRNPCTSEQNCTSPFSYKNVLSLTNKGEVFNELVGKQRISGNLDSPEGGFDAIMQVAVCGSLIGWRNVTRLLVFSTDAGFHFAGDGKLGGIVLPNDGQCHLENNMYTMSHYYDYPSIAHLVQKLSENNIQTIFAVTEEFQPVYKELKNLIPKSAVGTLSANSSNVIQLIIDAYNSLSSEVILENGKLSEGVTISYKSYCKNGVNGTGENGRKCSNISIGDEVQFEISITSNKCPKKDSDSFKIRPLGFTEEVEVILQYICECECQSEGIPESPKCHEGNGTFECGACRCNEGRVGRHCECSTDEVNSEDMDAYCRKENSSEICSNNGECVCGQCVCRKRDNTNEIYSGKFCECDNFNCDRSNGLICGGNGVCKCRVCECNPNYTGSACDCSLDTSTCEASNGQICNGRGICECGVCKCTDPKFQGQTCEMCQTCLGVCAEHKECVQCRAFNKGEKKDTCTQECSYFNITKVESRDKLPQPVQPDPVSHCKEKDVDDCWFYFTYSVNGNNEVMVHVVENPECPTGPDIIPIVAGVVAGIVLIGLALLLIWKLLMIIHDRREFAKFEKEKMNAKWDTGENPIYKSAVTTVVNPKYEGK
Experimental: The experiment involved sequential addition of BAY 41-2272 (100 μM, guanylyl cyclase activator) or vehicle (control) at the 0 time point, and the fluorescent LDV-FITC probe (4 nM), and CXCL8/IL-8 (20 nM) (arrows). Excess unlabelled competitor LDV (1 μM) added at the end of the experiment to determine the non-specific binding of the probe. This experiment is analogous to the one shown in panel B. One representative experiment of two experiments is shown. Curves are means of two independent determinations calculated on a point-by-point basis (n=2). […] D, Kinetic analysis of binding and dissociation of LDV-FITC probe on U937 cells stably transfected with the non-desensitizing mutant of FPR. Cells were sequentially treated with the LDV-FITC probe (25 nM, near saturation), the Gαi-coupled receptor ligand (fMLFF, 100 nM), BAY 41-2272 (guanylyl cyclase activator, 50 μM) (arrows). At time points indicated by arrows, cells were treated with excess unlabeled LDV containing small molecule (2 μM), and the dissociation of the fluorescent molecule was followed. Dissociation rate constants (koff) were obtained by fitting dissociation curves to a single exponential decay equation (as described in the text). Experiments shown in the different panels were performed using different instruments, and therefore MCF values are not identical. E, Dissociation rate values, obtained in experiments analogous to panel B, summarized as a bar graph showing mean and SEM (n=4). Colors of the dissociation curves in panel D and bars on panel E are matching. The difference between koffs for “resting” and “fMLFF activated”, and between “fMLFF activated” and “fMLFF activated and treated with BAY 41-2272” is statistically significant (P=0.0006<0.05) as calculated by one-way analysis of variance (ANOVA) using GraphPad Prism software. […]
Next, the regions of the ligand-binding curves corresponding to the dissociation of the LDV-FITC probe were fitted to a single exponential decay equation. […] The affinity state induced by guanylyl cyclase activator was quantitatively similar to the resting state before activation. […]

[4] = DEA-NONOate 250 μM, CXCL8/IL-8 20 nM
[5] = DEA-NONOate 250 μM, CXCL12/SDF-1 12 nM

Compound | reversibility of the decrease in LDV-FITC binding (VLA-4 [1]) | effect on LDV-FITC binding, compound added after fMLFF activation (VLA-4 [1]) | effect on magnitude of LDV-FITC binding response, compound added prior to IL-8 activation (VLA-4 [1]; [4]) | effect on magnitude of LDV-FITC binding response, compound added prior to SDF-1 activation (VLA-4 [1]; [5]) | effect on LDV-FITC binding, compound added after CXCL8/IL-8 activation (VLA-4 [1]; U937 wild type CXCR2/IL-8RB, CXCL8/IL-8 20 nM, DEA-NONOate 250 μM) | effect on LDV-FITC binding, compound added after CXCL12/SDF-1 activation (VLA-4 [1]; U937 wild type CXCR4, CXCL12/SDF-1 12 nM, DEA-NONOate 250 μM) | effect on VLA-4/VCAM-1 dependent cell aggregation (% U937 cells in aggregates) [2] | koff (VLA-4 [3]) [s⁻¹]
CCCC(=O)Nc1nc2c(ncn2C2OC3COP(=O)([O-])OC3C2OC(=O)CCC)c(=O)[nH]1.[Na+] (stereo not shown) [dbcGMP, N^2,2′-O-Dibutyrylguanosine 3′,5′-cyclic monophosphate] | reversible | dose-dependent decrease in the binding of the probe |  |  |  |  |  | 
CCN(CC)/[N+]([O-])=N/O [DEA-NONOate] | not reversible | rapid and dose-dependent decrease in the binding of the VLA-4 specific ligand | significant decrease in the magnitude of the response | significant decrease in the magnitude of the response | faster and more pronounced signal decrease | faster and more pronounced signal decrease | abolished fMLFF-dependent cellular aggregation | 
Cc1ccccc1NC(=O)Nc1ccc(CC(=O)N[C@@H](CC(C)C)C(=O)N[C@@H](CC(=O)O)C(=O)N[C@H](C(=O)N2CCC[C@H]2C(=O)N[C@@H](C)C(=O)N[C@@H](C)C(=O)N[C@@H](CCCCN)C(=O)O)C(C)C)cc1 [LDV, 4-((N′-2-methylphenyl)ureido)-phenylacetyl-L-leucyl-L-aspartyl-L-valyl-L-prolyl-L-alanyl-L-alanyl-L-lysine] |  |  |  |  |  |  | rapid cellular disaggregation | 
Nc1nc(-c2nn(Cc3ccccc3F)c3ncccc23)ncc1C1CC1 [BAY 41-2272, 3-(4-Amino-5-cyclopropylpyrimidin-2-yl)-1-(2-fluorobenzyl)-1H-pyrazolo[3,4-b]pyridine] | partially reversible | significant decrease in LDV-FITC binding | decrease in the magnitude of the response | decrease in the magnitude of the response |  |  |  | ~0.036
CSCC[C@H](NC=O)C(=O)N[C@@H](CC(C)C)C(=O)N[C@@H](Cc1ccccc1)C(=O)N[C@@H](Cc1ccccc1)C(=O)O [fMLFF, N-formyl-L-methionyl-L-leucyl-L-phenylalanyl-L-phenylalanine] (HELM PEPTIDE1{[O=C[*:2]].M.L.F.F}$$$$V2.0) |  |  |  |  |  |  | rapid increase in cell aggregation | 
